{"source": "ChEMBL document CHEMBL6177998", "about": "“Rational Design of Dual Degraders by Incorporating Molecular Glue Structural Features into PROTAC Degraders” (J Med Chem, 2025)", "key": {"CWR22R [1]": {"system": "CWR22R", "assay": "Upregulation of ribosome-related pathway gene expression in human 22Rv1 cells at 3 nM incubated for 24 hrs by GSEA analysis", "type": "functional, cell-based"}, "CWR22R [2]": {"system": "CWR22R", "assay": "Cell cycle arrest in human 22Rv1 cells assessed as accumulation of cells at G1 phase at 30 nM incubated for 24 hrs by flow cytometric analysis (reference value: 49.7 %)", "type": "functional"}, "[3]": {"biological_target": "T1, Protein cereblon/Eukaryotic peptide chain release factor GTP-binding subunit ERF3A (Homo sapiens, UniProt Q96SW2+P15170)", "T1 sequence (P15170 whole entry, looked up)": "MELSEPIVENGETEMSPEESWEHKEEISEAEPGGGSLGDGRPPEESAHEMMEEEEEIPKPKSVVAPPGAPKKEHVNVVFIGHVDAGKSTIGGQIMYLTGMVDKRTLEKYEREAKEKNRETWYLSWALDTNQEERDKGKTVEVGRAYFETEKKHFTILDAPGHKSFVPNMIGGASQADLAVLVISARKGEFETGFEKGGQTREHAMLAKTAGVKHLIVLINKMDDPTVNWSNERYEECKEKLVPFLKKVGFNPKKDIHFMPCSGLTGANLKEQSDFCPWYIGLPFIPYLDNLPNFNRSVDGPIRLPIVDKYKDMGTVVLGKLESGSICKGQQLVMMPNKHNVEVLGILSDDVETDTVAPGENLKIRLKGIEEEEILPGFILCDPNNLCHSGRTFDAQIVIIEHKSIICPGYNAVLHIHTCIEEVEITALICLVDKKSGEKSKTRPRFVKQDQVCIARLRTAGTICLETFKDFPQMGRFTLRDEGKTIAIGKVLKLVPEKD", "T1 sequence (Q96SW2 whole entry, looked up)": "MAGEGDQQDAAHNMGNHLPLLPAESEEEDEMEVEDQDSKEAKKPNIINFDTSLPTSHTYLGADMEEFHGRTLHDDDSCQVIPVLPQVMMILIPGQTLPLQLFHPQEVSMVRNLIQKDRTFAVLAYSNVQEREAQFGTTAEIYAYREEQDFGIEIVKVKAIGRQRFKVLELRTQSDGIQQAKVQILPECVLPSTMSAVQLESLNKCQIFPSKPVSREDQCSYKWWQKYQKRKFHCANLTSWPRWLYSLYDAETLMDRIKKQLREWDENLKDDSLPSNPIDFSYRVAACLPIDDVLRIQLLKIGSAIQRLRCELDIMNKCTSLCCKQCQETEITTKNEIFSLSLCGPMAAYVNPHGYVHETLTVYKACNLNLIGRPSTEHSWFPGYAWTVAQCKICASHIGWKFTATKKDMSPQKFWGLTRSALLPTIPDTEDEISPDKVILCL", "assay": "Molecular glue activity at CRBN/GSPT1 in human 22Rv1 cells assessed as induction of GSPT1 degradation at 20 nM incubated for 24 hrs by Western blot analysis (reference value: 0 %)", "type": "cell-based"}, "Androgen receptor": {"biological_target": "T2, Androgen receptor (Homo sapiens, UniProt P10275)", "T2 sequence (P10275 whole entry)": "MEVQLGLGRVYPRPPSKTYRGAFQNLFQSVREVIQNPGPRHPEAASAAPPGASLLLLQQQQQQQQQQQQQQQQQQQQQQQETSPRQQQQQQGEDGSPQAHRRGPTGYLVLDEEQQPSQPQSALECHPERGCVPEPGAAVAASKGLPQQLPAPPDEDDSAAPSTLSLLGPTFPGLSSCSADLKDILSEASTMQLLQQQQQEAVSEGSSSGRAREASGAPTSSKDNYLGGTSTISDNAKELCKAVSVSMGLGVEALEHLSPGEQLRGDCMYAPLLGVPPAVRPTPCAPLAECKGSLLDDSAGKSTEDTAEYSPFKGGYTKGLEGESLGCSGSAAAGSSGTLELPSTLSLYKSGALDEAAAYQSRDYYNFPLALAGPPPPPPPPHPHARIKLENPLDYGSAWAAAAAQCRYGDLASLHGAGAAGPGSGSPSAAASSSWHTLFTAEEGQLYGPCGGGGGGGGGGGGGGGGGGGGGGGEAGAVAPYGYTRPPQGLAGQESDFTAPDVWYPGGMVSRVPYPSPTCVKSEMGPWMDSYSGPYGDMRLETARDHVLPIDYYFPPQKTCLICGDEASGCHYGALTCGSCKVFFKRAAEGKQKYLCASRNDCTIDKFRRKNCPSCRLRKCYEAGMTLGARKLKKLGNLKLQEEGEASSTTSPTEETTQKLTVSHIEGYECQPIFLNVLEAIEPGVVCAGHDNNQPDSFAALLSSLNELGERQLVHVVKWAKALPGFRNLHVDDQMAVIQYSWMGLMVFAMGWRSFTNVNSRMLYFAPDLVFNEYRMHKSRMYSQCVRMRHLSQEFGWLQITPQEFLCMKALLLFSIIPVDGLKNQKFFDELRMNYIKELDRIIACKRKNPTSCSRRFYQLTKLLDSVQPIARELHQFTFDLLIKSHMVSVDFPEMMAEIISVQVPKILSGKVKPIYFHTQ", "assay": "Inhibition of wildtype AR (unknown origin) transcriptional activity transfected in HEK293T cells co-transfected with PSA-luciferase reporter and pRL-TK assessed as reduction in PSA-luciferase activity incubated for 24 hrs by luminescence based microplate reader analysis", "type": "cell-based"}, "[4]": {"assay": "Oral bioavailability in male ICR mouse at 10 mg/kg by LC-MS/MS analysis", "type": "ADME, organism-based", "settings": "in vivo"}, "[5]": {"biological_target": "T1, Protein cereblon/Eukaryotic peptide chain release factor GTP-binding subunit ERF3A", "assay": "Molecular glue activity at CRBN/GSPT1 in human 22Rv1 cells assessed as induction of GSPT1 degradation at 50 nM preincubated with MG132 followed by compound addition and measured after 12 hrs by Western blot analysis", "type": "cell-based"}, "[6]": {"biological_target": "T3, Protein cereblon/Androgen receptor (Homo sapiens, UniProt P10275+Q96SW2)", "T3 sequence (Q96SW2 whole entry, looked up, one chain of several)": "as the sequence (Q96SW2 whole entry, looked up) above", "assay": "PROTAC activity at CRBN/AR in human LNCaP cells assessed as decrease in PSA protein level incubated for 24 hrs by Western blot analysis", "type": "cell-based", "settings": "dose 1-100 nM"}, "[7]": {"biological_target": "T1, Protein cereblon/Eukaryotic peptide chain release factor GTP-binding subunit ERF3A", "assay": "Molecular glue activity at CRBN/GSPT1 in human 22Rv1 cells assessed as induction of GSPT1 degradation at 20 nM incubated for 2 hrs by Western blot analysis (reference value: 0 %)", "type": "cell-based"}, "[8]": {"biological_target": "T1, Protein cereblon/Eukaryotic peptide chain release factor GTP-binding subunit ERF3A", "assay": "Molecular glue activity at CRBN/GSPT1 in human 22Rv1 cells assessed as induction of GSPT1 degradation at 50 nM preincubated with MLN4924 followed by compound addition and measured after 12 hrs by Western blot analysis", "type": "cell-based"}, "[9]": {"assay": "Selectivity ratio of IC50 for antiproliferative activity against AR-independent human DU-145 cells assessed as cell growth inhibition to IC50 for antiproliferative activity against AR-dependent human LNCaP cells assessed as cell growth inhibition", "type": "functional"}, "CWR22R [10]": {"system": "CWR22R", "assay": "Cell cycle arrest in human 22Rv1 cells assessed as accumulation of cells at G1 phase at 10 nM incubated for 24 hrs by flow cytometric analysis (reference value: 49.7 %)", "type": "functional"}, "[11]": {"biological_target": "T3, Protein cereblon/Androgen receptor", "assay": "PROTAC activity at CRBN/AR in human VCaP cells assessed as induction of AR degradation at 20 nM by Western blot analysis", "type": "cell-based", "settings": "time 1-36 hrs"}, "[12]": {"biological_target": "T1, Protein cereblon/Eukaryotic peptide chain release factor GTP-binding subunit ERF3A", "assay": "Molecular glue activity at CRBN/GSPT1 in human 22Rv1 cells assessed as induction of GSPT1 degradation at 20 nM incubated for 6 hrs by Western blot analysis (reference value: 0 %)", "type": "cell-based"}, "[13]": {"biological_target": "T3, Protein cereblon/Androgen receptor", "assay": "PROTAC activity at CRBN/AR in human 22Rv1 cells assessed as induction of AR degradation at 20 nM incubated for 18 hrs by Western blot analysis (reference value: 0 %)", "type": "cell-based"}, "[14]": {"system": "Protein cereblon/Androgen receptor (Homo sapiens), P10275+Q96SW2 [UNDEFINED MUTATION]", "sequence (Q96SW2 whole entry, looked up, change not shown, one chain of several, canonical isoform)": "as the sequence (Q96SW2 whole entry, looked up) above", "assay": "PROTAC activity at CRBN/Androgen receptor splice variant 7 in human 22Rv1 cells assessed as induction of AR-V7 degradation at 20 nM incubated for 6 hrs by Western blot analysis (reference value: 0%)", "type": "cell-based"}, "[15]": {"biological_target": "T3, Protein cereblon/Androgen receptor", "assay": "PROTAC activity at CRBN/AR in human 22Rv1 cells assessed as induction of AR degradation at 20 nM incubated for 6 hrs by Western blot analysis (reference value: 0 %)", "type": "cell-based"}, "[16]": {"biological_target": "T3, Protein cereblon/Androgen receptor", "assay": "PROTAC activity at CRBN/AR in human 22Rv1 cells assessed as decrease in PSA protein level incubated for 24 hrs by Western blot analysis", "type": "cell-based", "settings": "dose 1-10 nM"}, "[17]": {"biological_target": "T1, Protein cereblon/Eukaryotic peptide chain release factor GTP-binding subunit ERF3A", "assay": "Molecular glue activity at CRBN/GSPT1 in human LNCaP cells assessed as induction of GSPT1 degradation by measuring maximal efficacy incubated for 24 hrs by Western blot analysis relative to control", "type": "cell-based"}, "CWR22R [18]": {"system": "CWR22R", "assay": "Induction of apoptosis in human 22Rv1 cells assessed as increase in cleaved PARP expression incubated for 24 hrs by Western blot analysis", "type": "functional, cell-based", "settings": "dose 1-30 nM"}, "[19]": {"biological_target": "Protein cereblon/Zinc finger protein Helios (Homo sapiens) (UniProt Q96SW2+Q9UKS7)", "sequence (Q96SW2 whole entry, looked up)": "as the sequence (Q96SW2 whole entry, looked up) above", "sequence (Q9UKS7 whole entry, looked up)": "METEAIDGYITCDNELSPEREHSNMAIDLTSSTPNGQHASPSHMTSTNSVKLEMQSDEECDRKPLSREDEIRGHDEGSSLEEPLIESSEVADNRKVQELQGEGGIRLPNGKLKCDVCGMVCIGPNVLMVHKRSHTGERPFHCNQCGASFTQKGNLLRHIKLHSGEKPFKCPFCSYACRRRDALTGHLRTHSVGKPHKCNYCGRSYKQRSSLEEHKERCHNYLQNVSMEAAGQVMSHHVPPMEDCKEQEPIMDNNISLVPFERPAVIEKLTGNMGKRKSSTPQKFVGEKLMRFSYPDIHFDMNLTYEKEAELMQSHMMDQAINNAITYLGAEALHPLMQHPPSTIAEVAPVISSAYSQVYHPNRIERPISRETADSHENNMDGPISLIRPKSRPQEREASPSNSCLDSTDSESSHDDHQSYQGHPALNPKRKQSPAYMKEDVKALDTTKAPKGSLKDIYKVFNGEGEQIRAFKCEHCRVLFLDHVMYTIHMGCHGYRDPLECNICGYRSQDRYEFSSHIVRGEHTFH", "assay": "Molecular glue activity at CRBN/IKZF2 in human 22Rv1 cells assessed as induction of IKZF2 degradation at 1 uM incubated for 6 hrs by Western blot analysis", "type": "cell-based"}, "[20]": {"biological_target": "T3, Protein cereblon/Androgen receptor", "assay": "PROTAC activity at CRBN/AR in human 22Rv1 cells assessed as induction of AR degradation by measuring maximal efficacy incubated for 24 hrs by Western blot analysis relative to control", "type": "cell-based"}, "[21]": {"biological_target": "T1, Protein cereblon/Eukaryotic peptide chain release factor GTP-binding subunit ERF3A", "assay": "Molecular glue activity at CRBN/GSPT1 in human VCaP cells assessed as induction of GSPT1 degradation by measuring maximal efficacy incubated for 24 hrs by Western blot analysis relative to control", "type": "cell-based"}}, "note": "The source made the active and inactive calls. No cut-off for these calls is given here.", "data": [{"smiles": "COc1ccc(C(C)(C)c2cc(Cl)c(OCC3CCN(C(=O)CCCCCNc4ccc5c(c4)C(=O)N(C4CCC(=O)NC4=O)C5=O)CC3)c(C#N)c2)cc1", "note": "(configuration not stated)", "values": [{"measurement": "Activity", "setting": "CWR22R [1]", "value": "Active"}, {"measurement": "Activity", "setting": "CWR22R [2]", "value": 74.6, "unit": "%"}, {"measurement": "Activity", "setting": "[3]", "value": 98.1, "unit": "%"}, {"measurement": "IC50", "setting": "Androgen receptor", "value": 3.2, "unit": "nM"}, {"measurement": "bioavailability", "setting": "[4]", "value": 11.2, "unit": "%"}, {"measurement": "Activity", "setting": "[5]", "value": "inactive"}, {"measurement": "Activity", "setting": "[6]", "value": "Dose-dependent-effect"}, {"measurement": "Activity", "setting": "[7]", "value": 74.6, "unit": "%"}, {"measurement": "Activity", "setting": "[8]", "value": "inactive"}, {"measurement": "Ratio IC50", "setting": "[9]", "value": 315}, {"measurement": "Activity", "setting": "CWR22R [10]", "value": 58.9, "unit": "%"}, {"measurement": "Activity", "setting": "[11]", "value": "Time-dependent-effect"}, {"measurement": "Activity", "setting": "[12]", "value": 98.6, "unit": "%"}, {"measurement": "Activity", "setting": "[13]", "value": 84.1, "unit": "%"}, {"measurement": "Activity", "setting": "[14]", "value": 20.1, "unit": "%"}, {"measurement": "Activity", "setting": "[15]", "value": 49.7, "unit": "%"}, {"measurement": "Activity", "setting": "[16]", "value": "Dose-dependent-effect"}, {"measurement": "Emax", "setting": "[17]", "value": 96.5, "unit": "%"}, {"measurement": "Activity", "setting": "CWR22R [18]", "value": "Dose-dependent-effect"}, {"measurement": "Activity", "setting": "[19]", "value": "inactive"}, {"measurement": "Emax", "setting": "[20]", "value": 90, "unit": "%"}, {"measurement": "Emax", "setting": "[21]", "value": 96, "unit": "%"}]}]}
